Assay results from patent US11453663B2, “Substituted propanamides as inhibitors of nucleases” (MASARYKOVA UNIVERZITA, priority 2018, dated 2022).

What was measured:
MRE11 = MRE11 (Homo sapiens (Human), UniProt P49959); assay: HTS nuclease assay (fluorescence-quenched 5′ overhang DNA substrate cleavage); assay type: biochemical; details: 18 nM MRE11, 40 nM DNA substrate, analysis at t=4 h
Procedure: DNA Substrate Preparation
The DNA substrate is prepared by mixing the oligonucleotides listed below in a 1:1 ratio to reach a final concentration of 6 μM in a buffer containing 50 mM Tris pH 7.5, 100 mM NaCl and 8 mM MgCl2.
The mixture is heat for 3 min at 65° C. and let to cool down slowly to RT. Then it is stored at −20° C.
This substrate is a 5′ overhang, which is a preferred substrate of MRE11. […] The fluorescence increases upon substrate cleavage by MRE11, when separation of the two labels occur.
The conditions of the assay are as follows:
Total reaction volume: 5 μL
DNA substrate concentration in the reaction: 40 nM
Inhibitor concentration range tested: 7 nM-50 μM
Each plate contains a series of high and low signal control wells, where no compound is added:
High signal: MRE11+DNA substrate
Low signal: DNA substrate only
These are used during data evaluation.
Two Extra Assay Controls:
1) To check whether unwinding of DNA by the compounds alone occurs.
The DNA substrate [CY5+BBQ(650)] is mixed with the compounds with no protein present.
The CY5 single stranded oligo is mixed with the compounds with no protein present.
The layout of the plates is created by the in-house software (CZ-Openscreen Prague) and this information is transferred to the robotic HTS station.
The reaction is started by the addition of DNA and the reaction time is counted from that moment, including a 15 min delay. Ten timepoints are measured:
The assay data analysis was performed at t=4 h. This corresponds to the time when the reaction is close to its maximum.
The data analysis was performed using the in-house software (CZ-Openscreen Prague) to obtain IC50 for each compound.

DR-GFP U2OS cells = assay: HR assay (GFP fluorescence by flow cytometry after I-SceI transfection); assay type: cell-based; details: Homo sapiens, 25 μM inhibitor, 72 hours after transfection
Procedure: DR-GFP U2OS cells (Methods in Molecular Biology 2012, 920, 379.) were transfected with 2.5 μg of I-SceI-expressing pCAGGS vector and treated with the inhibitors at 25 μM concentration. 72 hours after the transfection, the cells were trypsinized and resuspended in 3% BSA in PBS. GFP fluorescence detection was carried out using a BD FACSVerse flow cytometer and data analyzed with FlowJo software.

Sequence of MRE11 (P49959 whole entry): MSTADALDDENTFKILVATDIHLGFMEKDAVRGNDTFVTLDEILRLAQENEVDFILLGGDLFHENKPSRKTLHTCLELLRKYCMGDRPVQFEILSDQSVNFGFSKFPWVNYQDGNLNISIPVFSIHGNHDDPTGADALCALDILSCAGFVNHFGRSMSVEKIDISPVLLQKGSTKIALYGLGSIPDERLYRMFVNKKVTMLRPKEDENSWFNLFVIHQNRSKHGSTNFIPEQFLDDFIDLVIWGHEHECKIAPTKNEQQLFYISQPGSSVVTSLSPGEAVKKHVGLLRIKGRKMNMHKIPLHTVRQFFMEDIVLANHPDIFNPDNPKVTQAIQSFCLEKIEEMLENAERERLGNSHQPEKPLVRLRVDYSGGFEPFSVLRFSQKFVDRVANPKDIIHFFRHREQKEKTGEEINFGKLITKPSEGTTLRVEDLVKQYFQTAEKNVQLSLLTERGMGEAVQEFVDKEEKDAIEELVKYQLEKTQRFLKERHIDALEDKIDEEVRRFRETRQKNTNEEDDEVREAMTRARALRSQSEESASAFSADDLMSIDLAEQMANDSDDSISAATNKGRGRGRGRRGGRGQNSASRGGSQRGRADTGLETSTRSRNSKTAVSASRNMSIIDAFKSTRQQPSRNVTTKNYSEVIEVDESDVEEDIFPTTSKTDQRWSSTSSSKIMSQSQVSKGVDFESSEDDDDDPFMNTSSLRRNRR

Row | SMILES | IC50 (MRE11) | inhibition at 25 µM (DR-GFP U2OS cells)
1 | CC(C#N)(Cc1ccc(O)c(O)c1)C(=O)Nc1nc(-c2ccccc2)cs1 (stereo not drawn) [Preparative Example 179, 2-cyano-3-(3,4-dihydroxyphenyl)-2-methyl-N-(4-phenylthiazol-2-yl)propanamide] | 10 to 90 µM | < 50%
2 | N#CC(Cc1ccc(O)c(O)c1)C(=O)Nc1nc(-c2cccc(-c3ccccc3)c2)cs1 (stereo not drawn) [Preparative Example 138, N-(4-([1,1′-biphenyl]-3-yl)thiazol-2-yl)-2-cyano-3-(3,4-dihydroxyphenyl)propanamide] | 2 to 10 µM | > 75%
3 | Cc1cc(CC(C#N)C(=O)Nc2nc(-c3ccccc3)cs2)cc(C)c1O (stereo not drawn) [Preparative Example 147, 2-cyano-3-(4-hydroxy-3,5-dimethylphenyl)-N-(4-phenylthiazol-2-yl)propanamide] | 10 to 90 µM | 50 to 75%
4 | CC(C)(C)c1ccc(-c2csc(NC(=O)C(C#N)Cc3cc(C(C)(C)C)c(O)c(C(C)(C)C)c3)n2)cc1 (stereo not drawn) [Preparative Example 150, N-(4-(4-(tert-butyl)phenyl)thiazol-2-yl)-2-cyano-3-(3,5-di-tert-butyl-4-hydroxyphenyl)propanamide] |  | > 75%
5 | N#CC(Cc1ccc2nc[nH]c2c1)C(=O)Nc1nc(-c2ccccc2)cs1 (stereo not drawn) [Preparative Example 142, 3-(1H-benzo[d]imidazol-6-yl)-2-cyano-N-(4-phenylthiazol-2-yl)propanamide] | 10 to 90 µM | < 50%
6 | N#CC(Cc1ccc(O)c(O)c1)C(=O)Nc1nc(-c2ccc(C3CCCCC3)cc2)cs1 (stereo not drawn) [Preparative Example 154, 2-cyano-N-(4-(4-cyclohexylphenyl)thiazol-2-yl)-3-(3,4-dihydroxyphenyl)propanamide] | 2 to 10 µM | > 75%
7 | CC(c1ccc(O)c(O)c1)C(C#N)C(=O)Nc1nc(-c2ccccc2)cs1 (stereo not drawn) [Preparative Example 177, 2-cyano-3-(3,4-dihydroxyphenyl)-N-(4-phenylthiazol-2-yl)butanamide] |  | 50 to 75%
8 | CC(=O)Nc1ccc(CC(C#N)C(=O)Nc2nc(-c3ccccc3)cs2)cc1 (stereo not drawn) [Preparative Example 128, 3-(4-acetamidophenyl)-2-cyano-N-(4-phenylthiazol-2-yl)propanamide] |  | 50 to 75%
9 | N#CC(Cc1cc(Cl)c(O)c(Cl)c1)C(=O)Nc1nc(-c2ccc3ccccc3c2)cs1 (stereo not drawn) [Preparative Example 143, 2-cyano-3-(3,5-dichloro-4-hydroxyphenyl)-N-(4-(naphthalen-2-yl)thiazol-2-yl)propanamide] | 2 to 10 µM | < 50%
10 | Cc1cc(CC(C#N)C(=O)Nc2nc(-c3ccc(C(C)(C)C)cc3)cs2)cc(C)c1O (stereo not drawn) [Preparative Example 149, N-(4-(4-(tert-butyl)phenyl)thiazol-2-yl)-2-cyano-3-(4-hydroxy-3,5-dimethylphenyl)propanamide] | 10 to 90 µM | > 75%
11 | N#CC(Cc1cc(Cl)c(O)c(Cl)c1)C(=O)Nc1nc(-c2ccccc2)c(-c2ccccc2)s1 (stereo not drawn) [Preparative Example 134, 2-cyano-3-(3,5-dichloro-4-hydroxyphenyl)-N-(4,5-diphenylthiazol-2-yl)propanamide] | 2 to 10 µM | < 50%
12 | N#Cc1cc(CC(C#N)C(=O)Nc2nc(-c3ccccc3)cs2)ccc1O (stereo not drawn) [Preparative Example 151, 2-cyano-3-(3-cyano-4-hydroxyphenyl)-N-(4-phenylthiazol-2-yl)propanamide] | 10 to 90 µM | < 50%
13 | N#CC(Cc1cc(C(F)(F)F)cc(C(F)(F)F)c1)C(=O)Nc1nc(-c2ccccc2)cs1 (stereo not drawn) [Preparative Example 163, 3-(3,5-bis(trifluoromethyl)phenyl)-2-cyano-N-(4-phenylthiazol-2-yl)propanamide] |  | > 75%

Now from value to molecule, other results behind:

Row | IC50 (MRE11) | SMILES | inhibition at 25 µM (DR-GFP U2OS cells)
14 | < 2 µM | COc1ccnc(-c2csc(NC(=O)C(C#N)Cc3ccc(O)c(O)c3)n2)c1 (stereo not drawn) [Preparative Example 167, 2-cyano-3-(3,4-dihydroxyphenyl)-N-(4-(4-methoxypyridin-2-yl)thiazol-2-yl)propanamide] | > 75%
15 | < 2 µM | COc1ccc(-c2csc(NC(=O)C(C#N)Cc3ccc(O)c(O)c3)n2)nc1 (stereo not drawn) [Preparative Example 168, 2-cyano-3-(3,4-dihydroxyphenyl)-N-(4-(5-methoxypyridin-2-yl)thiazol-2-yl)propanamide] | > 75%
16 | 2 to 10 µM | COc1cccc(-c2csc(NC(=O)C(C#N)Cc3ccc(O)c(O)c3)n2)n1 (stereo not drawn) [Preparative Example 170, 2-cyano-3-(3,4-dihydroxyphenyl)-N-(4-(6-methoxypyridin-2-yl)thiazol-2-yl)propanamide] | 50 to 75%
17 | < 2 µM | N#CC(Cc1ccc(O)c(O)c1)C(=O)Nc1nc(-c2ccc(Cl)c(Cl)c2)cs1 (stereo not drawn) [Preparative Example 160, 2-cyano-N-(4-(3,4-dichlorophenyl)thiazol-2-yl)-3-(3,4-dihydroxyphenyl)propanamide] | 50 to 75%
18 | 2 to 10 µM | Cc1cccc(-c2csc(NC(=O)C(C#N)Cc3ccc(O)c(O)c3)n2)n1 (stereo not drawn) [Preparative Example 158, 2-cyano-3-(3,4-dihydroxyphenyl)-N-(4-(6-methylpyridin-2-yl)thiazol-2-yl)propanamide] | > 75%
19 | < 2 µM | COc1ccc(-c2csc(NC(=O)C(C#N)Cc3ccc(O)c(O)c3)n2)c(F)c1 (stereo not drawn) [Preparative Example 173, 2-cyano-3-(3,4-dihydroxyphenyl)-N-(4-(2-fluoro-4-methoxyphenyl)thiazol-2-yl)propanamide] | > 75%
20 | < 2 µM | N#CC(Cc1ccc(O)c(O)c1)C(=O)Nc1nc(-c2ncccc2F)cs1 (stereo not drawn) [Preparative Example 172, 2-cyano-3-(3,4-dihydroxyphenyl)-N-(4-(3-fluoropyridin-2-yl)thiazol-2-yl)propanamide] | > 75%
21 | 2 to 10 µM | N#CC(Cc1ccc(O)c(O)c1)C(=O)Nc1nc(-c2cccc(Cl)c2)cs1 (stereo not drawn) [Preparative Example 162, N-(4-(3-chlorophenyl)thiazol-2-yl)-2-cyano-3-(3,4-dihydroxyphenyl)propanamide] | 50 to 75%
22 | < 2 µM | N#CC(Cc1ccc(O)c(O)c1)C(=O)Nc1nc(-c2ccc(Cl)cc2Cl)cs1 (stereo not drawn) [Preparative Example 171, 2-cyano-N-(4-(2,4-dichlorophenyl)thiazol-2-yl)-3-(3,4-dihydroxyphenyl)propanamide] | > 75%
23 | 2 to 10 µM | N#CC(Cc1ccc(O)c(O)c1)C(=O)Nc1nc(-c2ccsc2)cs1 (stereo not drawn) [Preparative Example 145, 2-cyano-3-(3,4-dihydroxyphenyl)-N-(4-(thiophen-3-yl)thiazol-2-yl)propanamide] | < 50%
24 | 2 to 10 µM | CC(C)c1ccc(-c2csc(NC(=O)C(C#N)Cc3ccc(O)c(O)c3)n2)cc1 (stereo not drawn) [Preparative Example 166, 2-cyano-3-(3,4-dihydroxyphenyl)-N-(4-(4-isopropylphenyl)thiazol-2-yl)propanamide] | > 75%
25 | 2 to 10 µM | Cc1cc(-c2csc(NC(=O)C(C#N)Cc3ccc(O)c(O)c3)n2)cs1 (stereo not drawn) [Preparative Example 152, 2-cyano-3-(3,4-dihydroxyphenyl)-N-(4-(5-methylthiophen-3-yl)thiazol-2-yl)propanamide] | < 50%
26 | 2 to 10 µM | N#Cc1ccc(-c2csc(NC(=O)C(C#N)Cc3ccc(O)c(O)c3)n2)cc1 (stereo not drawn) [Preparative Example 131, 2-cyano-N-(4-(4-cyanophenyl)thiazol-2-yl)-3-(3,4-dihydroxyphenyl)propanamide] | 50 to 75%
27 | 2 to 10 µM | N#CC(Cc1ccc(O)c(O)c1)C(=O)Nc1nc(-c2ccc(C(F)(F)F)cc2)cs1 (stereo not drawn) [Preparative Example 132, 2-cyano-3-(3,4-dihydroxyphenyl)-N-(4-(4-(trifluoromethyl)phenyl)thiazol-2-yl)propanamide] | > 75%
28 | < 2 µM | Cc1ccc(-c2csc(NC(=O)C(C#N)Cc3ccc(O)c(O)c3)n2)nc1 (stereo not drawn) [Preparative Example 165, 2-cyano-3-(3,4-dihydroxyphenyl)-N-(4-(5-methylpyridin-2-yl)thiazol-2-yl)propanamide] | > 75%
29 | 2 to 10 µM | Cc1ccc(-c2csc(NC(=O)C(C#N)Cc3ccc(O)c(O)c3)n2)cc1 (stereo not drawn) [Preparative Example 133, 2-cyano-3-(3,4-dihydroxyphenyl)-N-(4-(p-tolyl)thiazol-2-yl)propanamide] | < 50%
